Values joined by “and” are separate entries in the source; they are usually repeats but may differ in a detail not shown here. Identical values can stand only once.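 Step 1: Grow cells in 96-well plates. Step 2: Expose to compound for 48 hours at 5 concentrations. Step 3: Interpolate endpoints linearly; if unreached, use highest concentration. Here, GI50 denotes the concentration required for 50% inhibition of growth. TGI: concentration producing complete growth inhibition.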 *1 amine or outer side, *2 acyl side, *3 side chain or, on linkers, in order; H or OH if unused. Where a SMILES comes first, the peptide text is derived from it. [ ]: non-standard residue; d: D form. X56 = CC[C@H](C)[C@H](OC(=O)[C@@H](C)[C@@H](CC)N[*:1])C(=O)[*:2]; X32 = C[C@H](N[*:1])C(=O)C(C)(C)C(=O)[*:2]; NMeY = CN[C@@H](Cc1ccc(O)cc1)C(=O)O; NMeL = CN[C@@H](CC(C)C)C(=O)O; NMeV = CN[C@H](C(=O)O)C(C)C
Experiments:
Assay in all cases: NCI tumour cell line growth inhibition, 48 h
MDA-MB-435 = test system: MDA-MB-435
SF-295 CNS = test system: SF-295 CNS
BT-549 breast = test system: BT-549 breast
KM12 colon = test system: KM12 colon
MCF7 breast = test system: MCF7 breast
SNB-19 CNS = test system: SNB-19 CNS
K-562 leukemia = test system: K-562 leukemia
SF-539 CNS = test system: SF-539 CNS
SN12C renal = test system: SN12C renal
OVCAR-5 ovarian = test system: OVCAR-5 ovarian

SMILES	TGI (MDA-MB-435) [µM]	TGI (SF-295 CNS)	GI50 (BT-549 breast) [µM]	TGI (BT-549 breast) [µM]	TGI (KM12 colon) [µM]	TGI (MCF7 breast) [µM]	TGI (SNB-19 CNS)	TGI (K-562 leukemia) [µM]	GI50 (SF-539 CNS) [µM]	TGI (SF-539 CNS)	TGI (SN12C renal)	GI50 (OVCAR-5 ovarian) [µM]	TGI (OVCAR-5 ovarian) [µM]	GI50 (MDA-MB-435) [µM]	GI50 (SF-295 CNS) [µM]	GI50 (KM12 colon) [µM]	GI50 (MCF7 breast) [µM]	GI50 (SNB-19 CNS) [µM]	GI50 (K-562 leukemia) [µM]	GI50 (SN12C renal) [µM]
Nc1ncnc2c1cnn2Cc1ccc(Cl)cc1	> 100	> 100 µM	72.1	> 100	> 100	> 100	> 100 µM	> 100	67.4	> 100 µM	> 100 µM	44.8	> 100							
NC(=O)c1ccc2nc3c(n2c1)C(=O)C(=O)c1ccccc1-3	0.336	3.07 µM	1.36	2.65	2.97	0.702	2.31 µM	3.73	0.621	1.85 µM	2.33 µM	1.72	3.15	0.186	1.67	1.39	0.23	1.1	0.677	0.965
CC1(C)CC2(C)CC1CC2NC(=O)CCN1CCOCC1 (stereo not given)	> 100	> 100 µM		> 100	> 100	> 100	> 100 µM	> 100		> 100 µM	> 100 µM		> 100							
C=CC1=C(C)C2=NC1=CC1=NC(=CC3=C(C)C4=C(O)C(C(=O)OC)C(=C5NC(=C2)C(C)C5CCC(=O)OC)C4=N3)C(CC)=C1C (stereo not given)	> 100	> 100 µM		> 100	> 100	> 100	> 100 µM	> 100		> 100 µM	> 100 µM		> 100							
CCNCCCn1c2c(c3ccc([N+](=O)[O-])cc3c1=O)C(=O)c1cc(OC)cnc1-2	0.744	0.496 µM	0.172	1.2	0.505	1.37	2.53 µM	1.65	0.0696	0.579 µM	1.08 µM	0.176	0.675	0.133	0.0421	0.197	0.0186	0.0576	0.0522	0.0531
NS(=O)(=O)c1ccc(NC(=O)c2cccc3cc4ccccc4nc23)cc1	> 100	> 100 µM		> 100	> 100	> 100	> 100 µM	> 100		> 94.3 µM	> 100 µM		> 100							
CCOC(=O)Nc1nc2c(C)cccc2s1	> 100	> 100 µM	35.8	> 100	> 100	> 100	> 100 µM	> 100	77.7	> 100 µM	> 100 µM	66.8	> 100	48.9	27.2	56.8	29.2	> 100	34.7	44.7
COc1ccc(OC)c2c(=S)c3ccccc3[nH]c12	> 100	> 100 µM		> 100	> 100	> 100	> 100 µM	> 92.6		> 100 µM	> 100 µM		> 100							
Cc1c(N=Cc2ccc(N(CCC#N)CCC#N)cc2)c(=O)n(-c2ccccc2)n1C	> 100	71.6 µM		> 100	> 100	> 100	> 100 µM	> 100		86.5 µM	> 100 µM		> 100							
CC(C)c1ccc(NC(=S)NC(=O)c2ccccc2)cc1	28.1	32.5 µM		60.6	46.5	48.8	> 100 µM	> 100		> 100 µM	> 100 µM		> 100							
O=C(CC1C=CCS1(=O)=O)NCc1ccccc1 (stereo not given)	> 100	> 100 µM		> 100	> 100	> 100	> 100 µM	> 100		> 100 µM	> 100 µM		> 100							
CC(=O)OC1Oc2ccccc2-c2oc(=O)c(-c3cc4ccccc4oc3=O)cc21 (stereo not given)	79.6	41.3 µM	18.6	40.1	> 100	34.1	32.4 µM	> 100	19.8	39.2 µM	53.8 µM	35	> 100	22.3	18.6	41.4	15.3	17	27.6	21.5
COc1ccccc1/C=C/C(=O)/C=C/c1ccccc1OC	5.61	10.5 µM	1.6	3.19	3.39	3.81	4.1 µM	12.4	2.82	6.33 µM	5.21 µM	3.16	6.47	2.04	3.74	1.57	0.37	1.84	2.83	2.06
C=C1C[C@@]2(C)C(CC[C@]3(C)C2CC=C2C4CC(C)(C)C[C@@H](OC(=O)/C(C)=C\C)[C@]4(C(=O)O)CC[C@]23C)C(C)(C)C1=O (stereo not given in full)	8.61	11.1 µM	1.91	3.68	15.9	19.2	17.4 µM	11.5	2.75	8.55 µM	15.2 µM	3.17	10.3	2.83	2.95	3.84	4.06	4.65	2.45	3.22
CC[C@H](C)[C@@H]1OC(=O)[C@@H](C)[C@@H](CC)NC(=O)[C@H](C)NC(=O)C(C)(C)C(=O)[C@H](C)NC(=O)[C@H](Cc2ccc(OC)cc2)N(C)C(=O)[C@H](C(C)C)N(C)C(=O)CNC(=O)[C@H](CC(C)C)N(C)C(=O)CNC1=O (cyclo(A[X56]G[NMeL]G[NMeV][NMeY](Me)[X32]))	2.47	0.657 µM and 0.0793 µM		0.28	91.2	1.26	0.492 µM and 0.688 µM	0.634	0.0239	0.0508 µM and 0.126 µM	9.79 µM and 3.68 µM	0.349	> 100		0.0102	0.679		0.211	< 0.0322	0.0433

Reference: PubChem BioAssay (NCI)
